Patent US20160045482A1, “UREIDO-PYRAZOLE DERIVATIVES” (Respivert Limited, priority 2010, published 2016)
Entries after “also recorded” stand apart in the source; their conditions may differ. Where two headings read alike, the source gives them in different places.

What was measured:
HCK = HCK (Homo sapiens, UniProt P08631); assay: Kinase enzyme activity, FRET (Z-LYTE); type: biochemical; conditions: 15 μM ATP
Procedure: (§1) The enzyme inhibitory activity of test compounds was determined by fluorescence resonance energy transfer (FRET) using synthetic peptides labelled with both donor and acceptor fluorophores (Z-LYTE, Invitrogen). For p38 MAPK alpha (MAPK14: Invitrogen), enzyme activity was evaluated indirectly by determining the activation/phosphorylation of the down-stream molecule, MAPKAP-K2. The p38 MAPK a protein was mixed with the test compound for 2 hr at RT. MAPKAP-K2 (Invitrogen), the FRET peptide (2 μM), which is a phosphorylation target for MAPKAP-K2, and ATP (10 μM) were then added to the enzymes/compound mixture and incubated for 1 hr. Development reagent was added and the mixture incubated for 1 hr before detection by fluorescence completed the assay protocol. The enzymes HCK, c-SRC, and SYK were evaluated in a similar fashion. Each enzyme was incubated with the test compound for 2 hr at RT. […] After the development reagent was added the mixtures were incubated for 1 hr and the assay protocol was completed by detection of the fluorescence levels in a microplate reader.

p38MAPKα = target: T1, p38MAPKα (Homo sapiens, UniProt Q16539); assay: Kinase enzyme activity, FRET (Z-LYTE); type: biochemical; conditions: 10 μM ATP, via MAPKAP-K2
T1 construct: purchased Invitrogen
T1 sequence (Q16539 whole entry): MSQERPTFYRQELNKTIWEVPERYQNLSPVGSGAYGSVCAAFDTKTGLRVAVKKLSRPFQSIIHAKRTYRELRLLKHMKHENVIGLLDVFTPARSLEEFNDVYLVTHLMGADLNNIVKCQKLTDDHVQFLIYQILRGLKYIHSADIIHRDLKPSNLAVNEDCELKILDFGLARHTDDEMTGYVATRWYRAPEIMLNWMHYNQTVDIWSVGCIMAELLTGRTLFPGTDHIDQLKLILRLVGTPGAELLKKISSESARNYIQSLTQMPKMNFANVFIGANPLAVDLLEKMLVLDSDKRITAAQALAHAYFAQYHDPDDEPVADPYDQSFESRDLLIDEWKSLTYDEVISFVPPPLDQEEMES
Procedure: as §1

NFκB = assay: HRV-16 induced activation of NFκB in BEAS2B cells; type: cell-based, human; conditions: after 2 hr, at 10 MOI
Procedure: (§2) The cells were then collected by scraping on ice and nuclear extracts were prepared using a nuclear protein extraction kit (ActiveMotif, […], Belgium). NFκB activity and IRF3 activity were then measured using the TransAMTM NFκB (p65) ELISA kit or the TransAMTM IRF3 ELISA kit.

IRF-3 = assay: HRV-16 induced activation of IRF-3 in BEAS2B cells; type: cell-based, human; conditions: after 2 hr, at 10 MOI
Procedure: as §2

HRV16 [1] = assay: Assessment of HRV16 induced CPE in MRC5; type: cell-based, human rhinovirus 16; conditions: Rhinovirus A
Procedure: The supernatants were aspirated and fresh media was added and the preparations were then incubated for 4 days. Where appropriate, cells were pre-incubated with the test compound or DMSO for 2 hr, and the compounds and DMSO added again after washout of the virus. Supernatants were aspirated and incubated with methylene blue solution (2% formaldehyde, 10% methanol and 0.175% Methylene Blue) for 2 hr at RT. After washing, 1% SDS was added to each well, and plates were shaken lightly for 1-2 hr prior to reading the absorbance at 660 nm. The percentage inhibition for each well was calculated. The IC50 value was calculated from the concentration-response curve generated from the serial dilutions of the test compound.

IL-8 [2] = assay: IL-8 release activated by human rhinovirus in BEAS2B cells; type: cell-based; conditions: for IL-8 production in response to inoculation using HRV-16: epithelial cells
Procedure: BEAS2B cells were infected with rhinovirus at an MOI of 5 and incubated for 2 hr at 33° C. with gentle shaking to enhance adsorption. Test compounds were added 2 hr before HRV infection and 2 hr after infection when residual extracellular HRV was washed out. The cells were then washed with PBS, fresh media was added and the cells were incubated for a further 72 hr. The supernatant was collected for assay of IL-8 concentrations using the Duoset ELISA development kit (R&D Systems, Minneapolis, Minn.).

ICAM-1 = assay: ICAM1 expression activated by human rhinovirus in BEAS2B cells (cell-based ELISA); conditions: for ICAM-1 expression induced by HRV16 inoculation (in words): 2 hr infection
Procedure: BEAS2B cells were infected with rhinovirus at an MOI of 5 and incubated for 2 hr at 33° C. with gentle shaking to enhance adsorption. Test compounds were added 2 hr before HRV infection and 2 hr after infection when residual extracellular HRV was washed out. The cells were then washed with PBS, fresh media was added and the cells were incubated for a further 72 hr. The supernatant was collected for assay of IL-8 concentrations using the Duoset ELISA development kit (R&D Systems, Minneapolis, Minn.). […] After appropriate incubation, cells were fixed with 4% formaldehyde in PBS. After quenching endogenous peroxidase by adding 0.1% sodium azide and 1% hydrogen peroxide, wells were washed with buffer (0.05% Tween in PBS: PBS-Tween). After incubation with the blocking solution (5% milk in PBS-Tween for 1 hr), cells were incubated with anti-human ICAM-1 antibody in 5% BSA PBS-Tween (1:500) overnight. Wells were then washed with PBS-Tween and incubated with the secondary antibody (HRP-conjugated anti-rabbit IgG, Dako Ltd.).

SYK = SYK (Homo sapiens, UniProt P43405); assay: Kinase enzyme activity, FRET (Z-LYTE); type: biochemical; conditions: 15 μM ATP
Procedure: as §1

HRV16 [3] = assay: HRV-16 infection, assessment of virus load (TCID50) in MRC5 cells; type: cell-based, human rhinovirus 16; conditions: HRV16 0.1 MOI, 3 days
Procedure: Human rhinovirus RV16 (HRV16) was obtained from the American Type Culture Collection (Manassas, Va.). Viral stocks were generated by infecting Hela cells with HRV until 80% of the cells were cytopathic. MRC5 cells (human lung fibroblast, ATCC) were infected at 0.1 MOI (multiplicity of infection of 0.1) of HRV16 and incubated for 1 hr at 33° C. with gentle shaking to stimulate adsorption. The cells were then washed with PBS, fresh media (DMEM-5% FCS) was added and the cells were incubated for a further 72 hr. Supernatant (20 μL) was collected and 10-fold serial dilutions were prepared with DMEM containing 1% FCS. All titrations were performed by infecting confluent Hela cell monolayers with serially diluted supernatant (10^−1-10^−5) and then the cytopathic effect at each dilution 3 days after infection assessed by visual inspection. The cells were then stained with Crystal Violet for confirmation. The amount of virus required to infect 50% of Hela cells was calculated in each treatment as TCID50 (50% tissue culture infectious dose, U(unit)/20 μL). Compounds were added 2 hr before HRV16 infection and 1 hr after infection when non-infected HRV was washed out.

HRV39 [4] = assay: HRV-39 viral load in air-liquid interface cultured nasal epithelial cells; type: cell-based, human rhinovirus
Procedure: (§3) Primary nasal epithelial cells, cultured using an air-liquid interface, were purchased from Epithelix Sarl (Geneva, Switzerland). Fresh, warmed media (200 μL) containing either the test compound at the selected concentration or vehicle (DMSO; final concentration of 0.5%) was transferred to the apical chamber, and fresh, warmed media (700 μL) containing either the test compound at the selected concentration or vehicle (DMSO; final concentration of 0.5%) were transferred to the bottom chamber. After incubation for 2 hr, the media in the upper well was removed carefully. The following day, fresh, warmed media (200 μL) containing either the test compound at the selected concentration or vehicle (DMSO; final concentration of 0.5%) was transferred to the apical chamber again, and after incubation for 2 hr, the media was removed. On the third day, cells were treated again for 2 hr, and the media was removed. […] IL-8 concentrations were determined using a Duoset ELISA development kit (R&D Systems, Minneapolis, Minn.; FIG. 3B). […] The resultant cytopathic effects (CPE) were assessed by visual inspection 5 days after infection. The amount of virus required to infect 50% of Hela cells was calculated for each treatment and is reported as log[TCID50] […]

IL-8 [5] = assay: HRV39-induced IL-8 release in air-liquid interface cultured nasal epithelial cells; type: cell-based, human
Procedure: as §3

HRV1B = HRV1B titres in MRC-5 cells; type: cell-based, human rhinovirus; conditions: 0.1 or 10 MOI, 3 days, results not shown
HRV39 [6] = assay: HRV39 titres in MRC-5 cells; type: cell-based, human rhinovirus; conditions: 0.1 or 10 MOI, 3 days, results not shown
HRV16 [7] = assay: HRV-16 infection, assessment of virus load (TCID50) in MRC5 cells; type: cell-based, human rhinovirus 16; conditions: MRC5 cells, 0.1 MOI, total period of 84 hr
HRV16 mRNA = assay: Transcripts of HRV16 by PCR in MRC5 cellular extract; type: cell-based, human rhinovirus 16; conditions: MRC5 cells, HRV16 0.1 MOI, 3 days
Procedure: (§4) The MRC5 cells infected with virus (as described above) were used for viral RNA or mRNA detection. Total RNA extraction and reverse transcription were performed using TaqMan®Fast Cells-to-CT™ Kit (Ambion Inc. Austin Tex.). The gene transcript level of HRV16 (PrimerDesign Ltd, Southampton, UK), IFN (Applied Biosystems, Warrington, UK) and GAPDH, as a house-keeping gene (PrimerDesign Ltd, Southampton, UK) were quantified by real-time PCR using commercially available primers on a StepOnePlus™ RT-PCR system (Applied Biosystems, Warrington, UK). Variations in cDNA concentrations between different samples were corrected using the housekeeping gene, whereby the GAPDH concentration in each cDNA sample was calculated, and the cDNA diluted to contain equal amounts of GAPDH. Standard curves for GAPDH were generated by performing a dilution series of the untreated control cDNA. The relative amount of gene transcript present after different treatments was calculated and normalized by dividing the calculated value for the gene of interest by that of the house-keeping gene value.

interferon β = assay: Interferon β induction (mRNA) by HRV16 in MRC-5 cells, PCR; type: cell-based, human
Procedure: as §4

HCK, sequence (P08631 whole entry): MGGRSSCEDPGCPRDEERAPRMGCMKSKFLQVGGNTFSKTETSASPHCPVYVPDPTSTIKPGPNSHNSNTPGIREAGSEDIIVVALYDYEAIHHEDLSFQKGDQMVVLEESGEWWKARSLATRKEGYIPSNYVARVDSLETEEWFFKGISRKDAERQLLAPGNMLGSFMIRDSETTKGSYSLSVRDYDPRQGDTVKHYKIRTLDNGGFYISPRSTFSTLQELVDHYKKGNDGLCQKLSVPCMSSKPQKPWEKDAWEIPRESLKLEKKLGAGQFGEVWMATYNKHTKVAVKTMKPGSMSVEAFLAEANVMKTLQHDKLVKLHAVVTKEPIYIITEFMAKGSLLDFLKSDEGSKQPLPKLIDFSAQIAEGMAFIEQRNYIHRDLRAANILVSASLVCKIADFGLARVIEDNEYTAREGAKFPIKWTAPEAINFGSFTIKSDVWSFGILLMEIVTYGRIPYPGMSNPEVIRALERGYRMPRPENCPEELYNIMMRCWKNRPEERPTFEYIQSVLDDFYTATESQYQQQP

In the case of `COc1ccc(-c2cc3nccn3c(Nc3ncccc3C(N)=O)n2)cc1OC` [BAY 61-3606], the IC50 (HCK) is reported as > 3310 nM, the IC50 (p38MAPKα) is reported as > 3310 nM and the “NFκB activation (HRV-16 induced)” value (NFκB) is reported as “inhibited”. The “IRF-3 activation (HRV-16 induced)” value (IRF-3) was “tendency to inhibit”.
In the case of `COCC(=O)Nc1cc(COc2ccc(NC(=O)Nc3cc(C(C)(C)C)nn3-c3ccc(C)cc3)c3ccccc23)ccn1` [Reference Compound 1, N-[4-({4-[3-(3-tert-Butyl-1-p-tolyl-1H-pyrazol-5-yl)ureido]naphthalen-1-yloxy}methyl)pyridin-2-yl]-2-methoxyacetamide, reference compound], the IC50 (HRV16 [1]; HRV16, MRC5, 96 h, read-out: HRV16-induced CPE IC50 Value (nM)) is reported as 340 nM, the IC50 (IL-8 [2]; Homo sapiens, BEAS-2B, BEAS2B cells, MOI of 5, 72 hr, read-out: HRV16-induced IL-8 IC50 Value) is reported as 1 nM and the “IL-8 production in response to inoculation using HRV-16” value (IL-8 [2]) is reported as “marked inhibition”. For the same compound, the “ICAM-1 expression induced by HRV16 inoculation (in words)” value (ICAM-1) was “no effect”, the IC50 (ICAM-1; Homo sapiens, BEAS-2B, HRV16 inoculation (2 hr infection), read-out: HRV16-induced ICAM1 IC50 Value) was > 1690 nM and the IC50 (SYK) was > 17800 nM. For the same compound, the “HRV-16 virus load (extracellular)” value (HRV16 [3]) was “modest effect; also recorded: Modest inhibition”, the “NFκB activation (HRV-16 induced)” value (NFκB) was “some evidence of inhibition; also recorded: Modest inhibition” and the “IRF-3 activation (HRV-16 induced)” value (IRF-3) was “without effect; also recorded: No effect”. The “HRV39 extracellular virus load” value (HRV39 [4]) was “little effect”, the “IL-8 production in response to inoculation using HRV39” value (IL-8 [5]) was “marked inhibition” and the HRV1B titres (HRV1B) was “little or no discernable effect”. For the same compound, the HRV39 titres (HRV39 [6]) was “little or no discernable effect”, the “Activity versus extracellular HRV16 load, delaying treatment for 24-36 hr” value (HRV16 [7]) was “marked decrease in activity” and the “Activity versus extracellular HRV16 load, initial treatment” value (HRV16 [7]) was “marked activity”.
With `COCC(=O)Nc1cc(Oc2ccc(NC(=O)Nc3cc(C(C)(C)C)nn3-c3ccc(C)cc3)c3ccccc23)ccn1` [Reference Compound 2, N-(4-(4-(3-(3-tert-Butyl-1-p-tolyl-1H-pyrazol-5-yl)ureido)naphthalen-1-yloxy)pyridin-2-yl)-2-methoxyacetamide] the IC50 (HRV16 [1]; 96 h, MRC5 cells, HRV16 MOI of 1, 4 days, read-out: HRV16-induced CPE IC50 Value) was 4.7 nM, the “IL-8 production in response to inoculation using HRV-16” value (IL-8 [2]) was “marked inhibition” and the “ICAM-1 expression induced by HRV16 inoculation (in words)” value (ICAM-1) was “remarkably potent inhibitory effect”. For the same compound, the “HRV-16 virus load (extracellular)” value (HRV16 [3]) was “potent inhibitor; also recorded: Marked inhibition”, the “NFκB activation (HRV-16 induced)” value (NFκB) was “inhibited; also recorded: Marked inhibition” and the “IRF-3 activation (HRV-16 induced)” value (IRF-3) was “enhanced; also recorded: Activation”. The “HRV16 mRNA detected in cellular extracts” value (HRV16 mRNA) was “potent inhibitor”, the “HRV39 extracellular virus load” value (HRV39 [4]) was “potent inhibitor” and the “IL-8 production in response to inoculation using HRV39” value (IL-8 [5]) was “marked inhibition”. The “Interferon β induction by HRV16” value (interferon β) was “marked increases”, the HRV1B titres (HRV1B) was “potent inhibitor” and the HRV39 titres (HRV39 [6]) was “potent inhibitor”. For the same compound, the “Activity versus extracellular HRV16 load, delaying treatment for 24-36 hr” value (HRV16 [7]) was “more sustained” and the “Activity versus extracellular HRV16 load, initial treatment” value (HRV16 [7]) was “marked activity”.
